Measurements taken from US20220041559A1, “BENZO-AND PYRIDO-PYRAZOLES AS PROTEIN KINASE INHIBITORS” (ROTTAPHARM BIOTECH S.R.L., priority 2019, published 2022).
pIC50: −log10 of the molar value. Read-outs that look alike come from different tables or passages of the source.

Legend:
YES kinase = target: T1, YES kinase (Homo sapiens, UniProt P07947); assay: ADP-Glo in vitro kinase assay, YES kinase inhibition; type: biochemical; conditions: ATP 50 μM, 30 minutes at room temperature
T1 construct: purchased Thermo Fisher
Procedure: The ADP-Glo™ Kinase Assay (Promega), monitoring ADP produced in the kinase reaction, was performed in two steps. In the first one, after the kinase reaction, the ADP-Glo™ Reagent is added to terminate the kinase reaction and deplete the remaining ATP. In the second step, the Kinase Detection Reagent is added to simultaneously convert ADP to ATP (ATPn or newly synthesized ATP) and introduce luciferase and luciferin, allowing the ATPn to be measured (luciferase/luciferin reaction). The amount of light generated correlates with the amount of ATPn (indirectly with the ADP produced in kinase reaction).
Kinase reaction was performed in 10 μl in a white 384-well plate, inhibitor solutions in DMSO/Kinase buffer (40 mM Tris-Cl, 20 mM MgCl2, 0.1 mg/ml BSA, 50 μM DTT, pH 7.5) and YES kinase in Kinase buffer (Thermo Fisher, 0.5 ng/μl final concentration in assay) were pre-incubate 15 minutes at room temperature. At the kinase concentration selected, a signal-to negative control ratio >10 was calculated, according to supplier indication. […]
The range of inhibitor concentrations was from 10^−10 M up to 10^−5 M (final concentration in assay) and each experimental point was performed in duplicate. […] The luminescence was measured with a plate-reading luminometer (Envision 2104 Multilabel reader, PerkinElmer). […]

human FynB = human FynB (Homo sapiens, UniProt P06241); assay: Inhibition of FynB-induced Tau(Y18)-phosphorylation (cell-based assay, HEK293)
Procedure: HEK293 cells (Human Embryonic Kidney 293) were seeded at 6×10^5 in poly-D-lysine 12 w microplates and grown adherent in medium DMEM/10% FBS at 37° C. with 5% CO2. After 24 h, cells were transfected in order to over-express either constitutively active form of human FynB and Tau protein (isoform 0N4R), through an optimized Lipofectamine® 3000 Transfection protocol (Life Technologies™). A non-transfected sample (negative control) was included in every experiment.
Twenty-four hours from transfection, treatments of cells were performed by adding fresh medium containing diluent (DMSO 0.1% final concentration) or test compounds. The incubation was carried out for 6 or 24 hours at 37° C. with 5% CO2. All experimental conditions were performed in duplicate.
At the end of the incubation, the medium was removed and cellular lysates were obtained by adding M-PER lysis buffer containing a 1× Protease/Phosphatase inhibitors cocktail. Then, lysates were transferred into Eppendorf tubes, sonicated and stored at −80° C.
Protein content was measured by Bradford method. Lysates were analyzed by a customized ELISA assay for Tau phosphorylation (Tyrosine 18 residue-Fyn mediated) and Total amount determination. The net OD values were used to calculate the inhibitory effect of compounds.

U87MG = assay: Cell viability, ViaCount assay, U87MG; type: cell-based, human; conditions: tested cell lines (U87MG, U373)
Procedure: U87MG: a human glioblastoma astrocytoma from ATCC. Grown in DMEM medium supplemented with 10% FBS at 37° C. with CO2.
Cell viability and total cell count was performed with ViaCount Assay on Guava® Systems, which was able to distinguish viable and non-viable cells based on differential permeabilities of two DNA-binding dyes in the Guava ViaCount® Reagent. 2×10^4 cancer cells were plated in 24 well in DMEM 10%. After 72 h cells were treated with the different compounds for 24, 72 h or 7 days, with a medium change and a second treatment with the product on day 4. At the end of the incubation period the analysis was done following the kit instructions.

[1] = Pharmacokinetics in CD1 mice, iv and po; type: in vivo; conditions: 3 mg/kg; for Kp: brain and plasma, read-out: B/P (brain to plasma ratio); for half-life: read-out: t½* (converted)
U87MG-luc tumor cells = assay: Reduction of tumor growth in intracranial U87MG-luc glioblastoma bearing mice; type: in vivo, athymic Nude mice; conditions: 50 mg/kg orally once a day, days 9-19
Procedure: Human U87MG cells (Glioblastoma Cancer cell line) were engineered to express the luciferase gene (U87MG-luc). Cultured U87MG-luc tumor cells were intracranially injected in athymic Nude mice. Eight days from injection mice were randomised on the basis of luminescence values emitted by luciferase-expressing U87M-luc tumor cells and divided into 2 treatment groups. The treatment started on day 9 and lasted 10 days. Mice were orally dosed with vehicle or with compound 5 of invention (50 mg/kg, once a day). The tumor growth was evaluated by real-time Bioluminescence Imaging at the end of the treatments period (day 19) and on day 26 and 33, form the cell injection. The tumour growth was reduced in mice treated with compound 5 compared to mice treated with vehicle alone.

Sequence of human FynB (P06241 271-524 limits assumed): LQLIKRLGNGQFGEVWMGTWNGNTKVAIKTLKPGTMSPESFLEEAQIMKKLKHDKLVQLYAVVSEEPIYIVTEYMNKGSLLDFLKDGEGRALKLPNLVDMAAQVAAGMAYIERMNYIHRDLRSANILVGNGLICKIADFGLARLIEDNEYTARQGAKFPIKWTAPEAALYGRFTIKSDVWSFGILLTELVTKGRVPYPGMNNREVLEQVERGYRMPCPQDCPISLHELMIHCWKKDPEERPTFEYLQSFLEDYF
T1 sequence (P07947 whole entry): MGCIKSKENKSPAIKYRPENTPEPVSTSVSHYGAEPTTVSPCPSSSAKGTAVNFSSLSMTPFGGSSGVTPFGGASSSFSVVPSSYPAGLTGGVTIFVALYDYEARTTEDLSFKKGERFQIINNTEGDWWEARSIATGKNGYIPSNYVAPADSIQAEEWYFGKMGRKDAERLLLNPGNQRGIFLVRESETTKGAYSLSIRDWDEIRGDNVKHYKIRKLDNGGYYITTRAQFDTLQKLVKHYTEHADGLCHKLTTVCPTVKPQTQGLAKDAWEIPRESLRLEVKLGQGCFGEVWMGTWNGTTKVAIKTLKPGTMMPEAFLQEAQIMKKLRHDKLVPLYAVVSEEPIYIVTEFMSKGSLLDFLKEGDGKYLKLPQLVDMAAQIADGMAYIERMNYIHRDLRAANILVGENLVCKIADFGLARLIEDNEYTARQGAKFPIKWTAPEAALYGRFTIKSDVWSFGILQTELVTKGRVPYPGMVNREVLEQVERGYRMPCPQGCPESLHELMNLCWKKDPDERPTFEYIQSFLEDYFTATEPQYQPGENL

Structure (SMILES): CN1CCC(c2ccc(C(=O)Nc3n[nH]c4nc(Nc5ccccc5F)ccc34)cc2)CC1 [Compound 5, N-(6-((2-fluorophenyl)amino)-1H-pyrazolo[3,4-b]pyridin-3-yl)-4-(1-methylpiperidin-4-yl)benzamide]
- pIC50 (YES kinase): 8.44
- pIC50 (human FynB; HEK293 over-expressing FynB and Tau 0N4R, incubation 6 or 24 hours, ELISA): 6.52
- Inhibition of FynB-induced Tau(Y18)-phosphorylation, result in words (human FynB; summary of Table 20): best inhibitors
- reduction of cell viability, result in words (U87MG): active in reducing cell viability
- Tlast ([1]; iv): 24 h
- Kp ([1]; mouse, calculated on AUC iv): 1.2
- Kp ([1]; mouse, calculated on AUC po): 1.4
- AUC(0-inf) ([1]; mouse, plasma, iv): 1640 ng·h/mL
- AUC(0-t) ([1]; mouse, plasma, iv): 1620 ng·h/mL
- clearance ([1]; mouse, plasma, iv, read-out: CLp): 30.4 mL/min/kg
- Vd ([1]; mouse, plasma, iv, read-out: Vz): 10.2 L/kg
- half-life ([1]; mouse, plasma, iv): 234 min
- AUC(0-inf) ([1]; mouse, plasma, po): 1180 ng·h/mL
- AUC(0-t) ([1]; mouse, plasma, po): 1170 ng·h/mL
- Cmax ([1]; mouse, plasma, po): 331 nM
- Tmax ([1]; mouse, plasma, po): 2 h
- bioavailability ([1]; mouse, plasma, po): 72%
- half-life ([1]; mouse, plasma, po): 240 min
- Tlast ([1]; po): 24 h
- inhibition of tumour growth (percentage of radiance inhibition) (U87MG-luc tumor cells; day 19): 24.9%
- inhibition of tumour growth (percentage of radiance inhibition) (U87MG-luc tumor cells; day 26): 34.4%
- inhibition of tumour growth (percentage of radiance inhibition) (U87MG-luc tumor cells; day 33): 60.4%
